Test results taken from patent US20170190671A1, “BIS(ARYL)CATECHOL DERIVATIVES AS HERBICIDES” (E I DU PONT DE NEMOURS AND COMPANY, priority 2014, published 2017).

Tests used:
Type in all cases: in vivo
Conditions in all cases: scale 0 to 100
[1] = system: downy bromegrass (Bromus tectorum); experiment: Test D postemergence
How it was run: (§1)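 Seeds were sown in silt loam for preemergence treatment, or in peat/vermiculite medium for postemergence sprays at 2–18 cm (1- to 4-leaf stage). Test chemicals were in a non-phytotoxic solvent with surfactant. After 14–21 days in a controlled environment, plants were visually rated against controls on a 0–100 scale (0 no effect, 100 complete control).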

[2] = system: chickweed (common chickweed, Stellaria media); experiment: Test D postemergence
How it was run: as §1

[3] = system: speedwell (bird's-eye speedwell, Veronica persica); experiment: Test D postemergence
How it was run: as §1

[4] = system: spring wheat (Triticum aestivum); experiment: Test D preemergence
How it was run: as §1

[5] = system: spring barley (Hordeum vulgare); experiment: Test D preemergence
How it was run: as §1

[6] = system: field poppy (Papaver rhoeas); experiment: Test D preemergence
How it was run: as §1

[7] = system: deadnettle (henbit deadnettle, Lamium amplexicaule); experiment: Test D preemergence
How it was run: as §1

[8] = system: galium (catchweed bedstraw, Galium aparine); experiment: Test D preemergence
How it was run: as §1

[9] = system: windgrass (Apera spica-venti); experiment: Test D preemergence
How it was run: as §1

kochia (Kochia scoparia) = experiment: Test D preemergence
How it was run: as §1

[10] = system: pigweed (Amaranthus retroflexus); experiment: Test D preemergence
How it was run: as §1

[11] = system: chickweed (common chickweed, Stellaria media); experiment: Test D preemergence
How it was run: as §1

[12] = system: chamomile (scentless chamomile, Matricaria inodora); experiment: Test D preemergence
How it was run: as §1

[13] = system: oilseed rape (Brassica napus); experiment: Test D preemergence
How it was run: as §1

[14] = system: Russian thistle (Salsola kali); experiment: Test D preemergence
How it was run: as §1

[15] = system: field violet (Viola arvensis); experiment: Test D preemergence
How it was run: as §1

[16] = system: winter wheat (Triticum aestivum); experiment: Test D preemergence
How it was run: as §1

[17] = system: green foxtail (Setaria viridis); experiment: Test D preemergence
How it was run: as §1

[18] = system: bluegrass (annual bluegrass, Poa annua); experiment: Test D preemergence
How it was run: as §1

[19] = system: cutleaf geranium (Geranium dissectum); experiment: Test D preemergence
How it was run: as §1

[20] = system: wild buckwheat (Polygonum convolvulus); experiment: Test D preemergence
How it was run: as §1

`FC(F)(F)c1cnc(Oc2c(Br)cccc2Oc2ncc(Cl)cn2)nc1` [Compound 24] was tested, and the “Plant response rating, Bromegrass, Downy” value ([1]; 16 g ai/ha) was 15, the “Plant response rating, Bromegrass, Downy” value ([1]; 31 g ai/ha) was 20 and the “Plant response rating, Bromegrass, Downy” value ([1]; 62 g ai/ha) was 20. For the same molecule, the “Plant response rating, Bromegrass, Downy” value ([1]; 125 g ai/ha) was 25, the “Plant response rating, Chickweed” value ([2]; 16 g ai/ha) was 60 and the “Plant response rating, Chickweed” value ([2]; 31 g ai/ha) was 70. The “Plant response rating, Chickweed” value ([2]; 62 g ai/ha) was 75, the “Plant response rating, Chickweed” value ([2]; 125 g ai/ha) was 85 and the “Plant response rating, Speedwell” value ([3]; 16 g ai/ha) was 35. The “Plant response rating, Speedwell” value ([3]; 31 g ai/ha) was 60, the “Plant response rating, Speedwell” value ([3]; 62 g ai/ha) was 80 and the “Plant response rating, Speedwell” value ([3]; 125 g ai/ha) was 90. For the same molecule, the “Plant response rating, Wheat, Spring” value ([4]; 16 g ai/ha) was 0, the “Plant response rating, Wheat, Spring” value ([4]; 31 g ai/ha) was 0 and the “Plant response rating, Wheat, Spring” value ([4]; 62 g ai/ha) was 0. The “Plant response rating, Wheat, Spring” value ([4]; 125 g ai/ha) was 40, the “Plant response rating, Barley, Spring” value ([5]; 16 g ai/ha) was 0 and the “Plant response rating, Barley, Spring” value ([5]; 31 g ai/ha) was 20. For the same molecule, the “Plant response rating, Barley, Spring” value ([5]; 62 g ai/ha) was 30, the “Plant response rating, Barley, Spring” value ([5]; 125 g ai/ha) was 85 and the “Plant response rating, Field Poppy” value ([6]; 16 g ai/ha) was 75. The “Plant response rating, Field Poppy” value ([6]; 31 g ai/ha) was 100, the “Plant response rating, Field Poppy” value ([6]; 62 g ai/ha) was 100 and the “Plant response rating, Field Poppy” value ([6]; 125 g ai/ha) was 100. For the same molecule, the “Plant response rating, Deadnettle” value ([7]; 16 g ai/ha) was 30, the “Plant response rating, Deadnettle” value ([7]; 31 g ai/ha) was 60 and the “Plant response rating, Deadnettle” value ([7]; 62 g ai/ha) was 100. The “Plant response rating, Deadnettle” value ([7]; 125 g ai/ha) was 100, the “Plant response rating, Galium” value ([8]; 16 g ai/ha) was 0 and the “Plant response rating, Galium” value ([8]; 31 g ai/ha) was 25. The “Plant response rating, Galium” value ([8]; 62 g ai/ha) was 85, the “Plant response rating, Galium” value ([8]; 125 g ai/ha) was 70 and the “Plant response rating, Windgrass” value ([9]; 16 g ai/ha) was 5. For the same molecule, the “Plant response rating, Windgrass” value ([9]; 31 g ai/ha) was 15, the “Plant response rating, Windgrass” value ([9]; 62 g ai/ha) was 25 and the “Plant response rating, Windgrass” value ([9]; 125 g ai/ha) was 85. The “Plant response rating, Kochia” value (kochia (Kochia scoparia); 16 g ai/ha) was 0, the “Plant response rating, Kochia” value (kochia (Kochia scoparia); 31 g ai/ha) was 25 and the “Plant response rating, Kochia” value (kochia (Kochia scoparia); 62 g ai/ha) was 60. For the same molecule, the “Plant response rating, Kochia” value (kochia (Kochia scoparia); 125 g ai/ha) was 100, the “Plant response rating, Pigweed” value ([10]; 16 g ai/ha) was 60 and the “Plant response rating, Pigweed” value ([10]; 31 g ai/ha) was 100. For the same molecule, the “Plant response rating, Pigweed” value ([10]; 62 g ai/ha) was 100, the “Plant response rating, Pigweed” value ([10]; 125 g ai/ha) was 100 and the “Plant response rating, Chickweed” value ([11]; 16 g ai/ha) was 10. The “Plant response rating, Chickweed” value ([11]; 31 g ai/ha) was 100, the “Plant response rating, Chickweed” value ([11]; 62 g ai/ha) was 100 and the “Plant response rating, Chickweed” value ([11]; 125 g ai/ha) was 100. For the same molecule, the “Plant response rating, Chamomile” value ([12]; 16 g ai/ha) was 55, the “Plant response rating, Chamomile” value ([12]; 31 g ai/ha) was 100 and the “Plant response rating, Chamomile” value ([12]; 62 g ai/ha) was 100. For the same molecule, the “Plant response rating, Chamomile” value ([12]; 125 g ai/ha) was 100, the “Plant response rating, Oilseed Rape” value ([13]; 16 g ai/ha) was 0 and the “Plant response rating, Oilseed Rape” value ([13]; 31 g ai/ha) was 15. The “Plant response rating, Oilseed Rape” value ([13]; 62 g ai/ha) was 20, the “Plant response rating, Oilseed Rape” value ([13]; 125 g ai/ha) was 80 and the “Plant response rating, Russian Thistle” value ([14]; 16 g ai/ha) was 0. For the same molecule, the “Plant response rating, Russian Thistle” value ([14]; 31 g ai/ha) was 0, the “Plant response rating, Russian Thistle” value ([14]; 62 g ai/ha) was 35 and the “Plant response rating, Russian Thistle” value ([14]; 125 g ai/ha) was 80. For the same molecule, the “Plant response rating, Field Violet” value ([15]; 16 g ai/ha) was 20, the “Plant response rating, Field Violet” value ([15]; 31 g ai/ha) was 20 and the “Plant response rating, Field Violet” value ([15]; 62 g ai/ha) was 75. For the same molecule, the “Plant response rating, Field Violet” value ([15]; 125 g ai/ha) was 100, the “Plant response rating, Wheat, Winter” value ([16]; 16 g ai/ha) was 0 and the “Plant response rating, Wheat, Winter” value ([16]; 31 g ai/ha) was 0. For the same molecule, the “Plant response rating, Wheat, Winter” value ([16]; 62 g ai/ha) was 0, the “Plant response rating, Wheat, Winter” value ([16]; 125 g ai/ha) was 10 and the “Plant response rating, Foxtail, Green” value ([17]; 16 g ai/ha) was 10. For the same molecule, the “Plant response rating, Foxtail, Green” value ([17]; 31 g ai/ha) was 35, the “Plant response rating, Foxtail, Green” value ([17]; 62 g ai/ha) was 75 and the “Plant response rating, Foxtail, Green” value ([17]; 125 g ai/ha) was 85. The “Plant response rating, Bluegrass” value ([18]; 16 g ai/ha) was 15, the “Plant response rating, Bluegrass” value ([18]; 31 g ai/ha) was 20 and the “Plant response rating, Bluegrass” value ([18]; 62 g ai/ha) was 25. The “Plant response rating, Bluegrass” value ([18]; 125 g ai/ha) was 35, the “Plant response rating, Geranium, Cutleaf” value ([19]; 16 g ai/ha) was 75 and the “Plant response rating, Geranium, Cutleaf” value ([19]; 31 g ai/ha) was 75. For the same molecule, the “Plant response rating, Geranium, Cutleaf” value ([19]; 62 g ai/ha) was 90, the “Plant response rating, Geranium, Cutleaf” value ([19]; 125 g ai/ha) was 100 and the “Plant response rating, Buckwheat, Wild” value ([20]; 16 g ai/ha) was 10. For the same molecule, the “Plant response rating, Buckwheat, Wild” value ([20]; 62 g ai/ha) was 20 and the “Plant response rating, Buckwheat, Wild” value ([20]; 125 g ai/ha) was 100.
